Results from paper PMC5218480 (PLoS ONE, 2017).

System: MV-4-11 cells
Test: Gene expression microarray analysis (Affymetrix PrimeView) and GSEA
Type: cell-based, human
Parameters: RFU PODN (11730768_x_at) / Fold change /veh PODN (11730768_x_at) / RFU LINC00158 (11744669_a_at) / Fold change /veh LINC00158 (11744669_a_at) / RFU DUSP10 (11751237_a_at) / Fold change /veh DUSP10 (11751237_a_at) / RFU ID3 (11757404_x_at) / Fold change /veh ID3 (11757404_x_at) / RFU PLEKHG5 (11737974_s_at) / Fold change /veh PLEKHG5 (11737974_s_at) / RFU LRRC4B (11730491_at) / Fold change /veh LRRC4B (11730491_at) / RFU GIMAP4 (11747438_a_at) / Fold change /veh GIMAP4 (11747438_a_at) / RFU KRT8 (11758183_x_at) / Fold change /veh KRT8 (11758183_x_at) / RFU CNN1 (11734310_a_at) / Fold change /veh CNN1 (11734310_a_at) / RFU VPS37D (11726825_at) / Fold change /veh VPS37D (11726825_at) / RFU C10orf10 (11716522_x_at) / Fold change /veh C10orf10 (11716522_x_at) / RFU KIR2DL2 /// KIR2DL4 /// KIR2DL5A /// KIR2DL5B /// KIR2DS1 /// KIR2DS2 /// KIR2DS3 /// KIR2DS4 /// KIR3DL3 /// KIR3DL3 /// KIR3DS1 (11738374_at) / Fold change /veh KIR2DL2 /// KIR2DL4 /// KIR2DL5A /// KIR2DL5B /// KIR2DS1 /// KIR2DS2 /// KIR2DS3 /// KIR2DS4 /// KIR3DL3 /// KIR3DL3 /// KIR3DS1 (11738374_at) / RFU C1QL1 (11718748_at) / Fold change /veh C1QL1 (11718748_at) / RFU TMPRSS4 (11747572_a_at) / Fold change /veh TMPRSS4 (11747572_a_at) / RFU HAMP (11756126_x_at) / Fold change /veh HAMP (11756126_x_at) / RFU RNFT2 (11725882_a_at) / Fold change /veh RNFT2 (11725882_a_at) / RFU NR4A2 (11747474_a_at) / Fold change /veh NR4A2 (11747474_a_at) / RFU ABCC12 (11746883_a_at) / Fold change /veh ABCC12 (11746883_a_at) / RFU TMEM136 (11760407_x_at) / Fold change /veh TMEM136 (11760407_x_at) / RFU CLDN22 /// WWC2 (11732394_at) / Fold change /veh CLDN22 /// WWC2 (11732394_at) / RFU HLA-DPB1 (11760878_x_at) / Fold change /veh HLA-DPB1 (11760878_x_at) / RFU SPINT1 (11716480_a_at) / Fold change /veh SPINT1 (11716480_a_at) / RFU GAP43 (11754022_s_at) / Fold change /veh GAP43 (11754022_s_at) / RFU A4GNT (11735810_at) / Fold change /veh A4GNT (11735810_at) / RFU PRB3 (11715151_x_at) / Fold change /veh PRB3 (11715151_x_at) / RFU TUBB4B (11761932_at) / Fold change /veh TUBB4B (11761932_at) / RFU CAPN14 (11732068_a_at) / Fold change /veh CAPN14 (11732068_a_at) / RFU TMCC2 (11721928_a_at) / Fold change /veh TMCC2 (11721928_a_at) / RFU IRGQ (11745062_a_at) / Fold change /veh IRGQ (11745062_a_at) / RFU FAM174B (11720279_a_at) / Fold change /veh FAM174B (11720279_a_at) / RFU TMPRSS4 (11748680_a_at) / Fold change /veh TMPRSS4 (11748680_a_at) / RFU FAM212B (11763350_a_at) / Fold change /veh FAM212B (11763350_a_at) / RFU PLEKHG5 (11743358_a_at) / Fold change /veh PLEKHG5 (11743358_a_at) / RFU ZSCAN30 (11745921_a_at) / Fold change /veh ZSCAN30 (11745921_a_at) / RFU CMKLR1 (11741424_a_at) / Fold change /veh CMKLR1 (11741424_a_at) / RFU LOC101060620 /// MAPK8IP1 (11723275_at) / Fold change /veh LOC101060620 /// MAPK8IP1 (11723275_at) / RFU SPTSSB (11747773_x_at) / Fold change /veh SPTSSB (11747773_x_at) / RFU PRSS12 (11739890_at) / Fold change /veh PRSS12 (11739890_at) / RFU BIN1 (11741810_x_at) / Fold change /veh BIN1 (11741810_x_at) / RFU WNT11 (11732464_a_at) / Fold change /veh WNT11 (11732464_a_at) / RFU C10orf10 (11716521_a_at) / Fold change /veh C10orf10 (11716521_a_at) / RFU C5orf56 (11738089_at) / Fold change /veh C5orf56 (11738089_at) / RFU CYB561 (11721691_x_at) / Fold change /veh CYB561 (11721691_x_at) / RFU ANKRD19P (11752326_a_at) / Fold change /veh ANKRD19P (11752326_a_at) / RFU OR2T12 /// OR2T33 /// OR2T8 (11738714_s_at) / Fold change /veh OR2T12 /// OR2T33 /// OR2T8 (11738714_s_at) / RFU VCAN (11748164_a_at) / Fold change /veh VCAN (11748164_a_at) / RFU JSRP1 (11732532_at) / Fold change /veh JSRP1 (11732532_at) / RFU KRTAP10-11 (11738290_x_at) / Fold change /veh KRTAP10-11 (11738290_x_at) / RFU MYO3A (11730013_a_at) / Fold change /veh MYO3A (11730013_a_at) / RFU EBF3 (11725865_a_at) / Fold change /veh EBF3 (11725865_a_at) / RFU CAMK2N1 (11719241_x_at) / Fold change /veh CAMK2N1 (11719241_x_at) / RFU C5orf56 (11738088_a_at) / Fold change /veh C5orf56 (11738088_a_at) / RFU OLFML3 (11715873_a_at) / Fold change /veh OLFML3 (11715873_a_at) / RFU LOC100653217 /// NTM (11731650_a_at) / Fold change /veh LOC100653217 /// NTM (11731650_a_at) / RFU MAPK11 (11762145_a_at) / Fold change /veh MAPK11 (11762145_a_at) / RFU FIZ1 (11724087_x_at) / Fold change /veh FIZ1 (11724087_x_at) / RFU OASL (11726364_x_at) / Fold change /veh OASL (11726364_x_at) / RFU SOX15 (11748057_x_at) / Fold change /veh SOX15 (11748057_x_at) / RFU CD79A (11719716_a_at) / Fold change /veh CD79A (11719716_a_at) / RFU HIST1H1D (11736915_at) / Fold change /veh HIST1H1D (11736915_at) / RFU CASKIN2 (11723855_a_at) / Fold change /veh CASKIN2 (11723855_a_at) / RFU LOC730098 (11760151_x_at) / Fold change /veh LOC730098 (11760151_x_at) / RFU OR4N2 (11742367_at) / Fold change /veh OR4N2 (11742367_at) / RFU PRRT2 (11749266_a_at) / Fold change /veh PRRT2 (11749266_a_at) / RFU SNX32 (11753110_a_at) / Fold change /veh SNX32 (11753110_a_at) / RFU CDHR5 (11726645_a_at) / Fold change /veh CDHR5 (11726645_a_at) / RFU RCAN1 (11760418_a_at) / Fold change /veh RCAN1 (11760418_a_at) / RFU FAM167A (11723789_a_at) / Fold change /veh FAM167A (11723789_a_at) / RFU FAM26E (11764081_at) / Fold change /veh FAM26E (11764081_at) / RFU ISYNA1 (11749810_s_at) / Fold change /veh ISYNA1 (11749810_s_at) / RFU ACY1 (11761880_at) / Fold change /veh ACY1 (11761880_at) / RFU 11764098_at / Fold change /veh 11764098_at / RFU SAMD14 (11745864_x_at) / Fold change /veh SAMD14 (11745864_x_at) / RFU NPB (11741838_a_at) / Fold change /veh NPB (11741838_a_at) / RFU TMPRSS6 (11731388_a_at) / Fold change /veh TMPRSS6 (11731388_a_at) / RFU KRTAP10-2 (11738614_at) / Fold change /veh KRTAP10-2 (11738614_at) / RFU ARHGAP8 /// PRR5-ARHGAP8 (11727945_x_at) / Fold change /veh ARHGAP8 /// PRR5-ARHGAP8 (11727945_x_at) / RFU KRTAP5-7 /// NADSYN1 (11734609_at) / Fold change /veh KRTAP5-7 /// NADSYN1 (11734609_at) / RFU RASL12 (11751679_a_at) / Fold change /veh RASL12 (11751679_a_at) / RFU CDKN2B (11736163_a_at) / Fold change /veh CDKN2B (11736163_a_at) / RFU PRF1 (11729649_at) / Fold change /veh PRF1 (11729649_at) / RFU, ZNF638 /// ZNF638-IT1 / Fold change vs veh, ZNF638 /// ZNF638-IT1 / RFU, PANK3 / Fold change vs veh, PANK3 / RFU, SH3YL1 / Fold change vs veh, SH3YL1 / RFU, ZEB2 / Fold change vs veh, ZEB2 / RFU, NRIP1 / Fold change vs veh, NRIP1 / RFU, PTTG1IP / Fold change vs veh, PTTG1IP / RFU, CAPN2 / Fold change vs veh, CAPN2 / RFU, MED14 / Fold change vs veh, MED14 / RFU, SNORA58 / Fold change vs veh, SNORA58 / RFU, C1orf63 / Fold change vs veh, C1orf63 / RFU, LRRFIP1 / Fold change vs veh, LRRFIP1 / RFU, NDUFAF7 / Fold change vs veh, NDUFAF7 / RFU, SLC12A2 / Fold change vs veh, SLC12A2 / RFU, IBTK / Fold change vs veh, IBTK / RFU, ESF1 / Fold change vs veh, ESF1 / Fold change vs veh, TMEM50B / RFU, TAOK1 / Fold change vs veh, TAOK1 / RFU, ACBD3 / Fold change vs veh, ACBD3 / RFU, TMA16 / Fold change vs veh, TMA16 / RFU, RWDD3 / Fold change vs veh, RWDD3 / RFU, BCAT1 / Fold change vs veh, BCAT1 / RFU, EDEM3 / Fold change vs veh, EDEM3 / RFU, TMEM33 / Fold change vs veh, TMEM33 / RFU, WDR75 / Fold change vs veh, WDR75 / RFU, AHCTF1 / Fold change vs veh, AHCTF1 / RFU, TFRC / Fold change vs veh, TFRC / RFU, ZDHHC17 / Fold change vs veh, ZDHHC17 / RFU, NOM1 / Fold change vs veh, NOM1 / RFU, ARL8B / Fold change vs veh, ARL8B / RFU, ZBTB11 / Fold change vs veh, ZBTB11 / RFU, TAMM41 / Fold change vs veh, TAMM41 / RFU, KIAA1704 /// LOC100996395 / Fold change vs veh, KIAA1704 /// LOC100996395 / RFU, ING1 / Fold change vs veh, ING1 / RFU, TRMT61B / Fold change vs veh, TRMT61B / RFU, FUBP3 / Fold change vs veh, FUBP3 / RFU, TP53 / Fold change vs veh, TP53 / RFU, TNKS2 / Fold change vs veh, TNKS2 / RFU, ZFP14 / Fold change vs veh, ZFP14 / RFU, ACTR2 / Fold change vs veh, ACTR2 / RFU, PPP3R1 / Fold change vs veh, PPP3R1 / RFU, PIK3R1 / Fold change vs veh, PIK3R1 / RFU, HNRNPA1 / Fold change vs veh, HNRNPA1 / RFU, RNF170 / Fold change vs veh, RNF170 / RFU, ZNF28 / Fold change vs veh, ZNF28 / RFU, RNGTT / Fold change vs veh, RNGTT / RFU, OGT / Fold change vs veh, OGT / RFU, BRD1 / Fold change vs veh, BRD1 / RFU, MARS / Fold change vs veh, MARS / RFU, ZNF655 / Fold change vs veh, ZNF655 / RFU, FAHD1 / Fold change vs veh, FAHD1 / RFU, BDP1 / Fold change vs veh, BDP1 / RFU, LRRCC1 / Fold change vs veh, LRRCC1 / RFU, ARID1A / Fold change vs veh, ARID1A / RFU, ZNF146 / Fold change vs veh, ZNF146 / RFU, ZNF330 / Fold change vs veh, ZNF330 / RFU, GPN3 / Fold change vs veh, GPN3 / RFU, C9orf123 / Fold change vs veh, C9orf123 / RFU, N4BP2L2 / Fold change vs veh, N4BP2L2 / RFU, ARFIP1 / Fold change vs veh, ARFIP1 / RFU, FAM179B / Fold change vs veh, FAM179B / RFU, BCL10 / Fold change vs veh, BCL10 / RFU, UHRF1BP1L / Fold change vs veh, UHRF1BP1L / RFU, BET1 / Fold change vs veh, BET1 / RFU, CNOT2 / Fold change vs veh, CNOT2 / RFU, ZNF268 / Fold change vs veh, ZNF268 / Fold change vs veh, ZNF507 / RFU, DGCR2 / Fold change vs veh, DGCR2 / RFU, WDSUB1 / Fold change vs veh, WDSUB1 / Fold change vs veh, HSP90B1 /// MIR3652 / RFU, ADSS / Fold change vs veh, ADSS / RFU, GK / Fold change vs veh, GK / RFU, ZNF148 / Fold change vs veh, ZNF148 / RFU, TAF9 / Fold change vs veh, TAF9 / RFU, SLC1A5 / Fold change vs veh, SLC1A5 / RFU, SLMO2 / Fold change vs veh, SLMO2 / RFU, ABCC4 / Fold change vs veh, ABCC4 / RFU, LOC101060439 /// RAP1B / Fold change vs veh, LOC101060439 /// RAP1B / RFU, RFX7 / Fold change vs veh, RFX7 / RFU, GTPBP10 / Fold change vs veh, GTPBP10 / RFU, CNEP1R1 / Fold change vs veh, CNEP1R1 / RFU, BIVM-ERCC5 /// ERCC5 / Fold change vs veh, BIVM-ERCC5 /// ERCC5 / RFU, ILF3 / Fold change vs veh, ILF3 / RFU 11762660_at / Fold change /veh 11762660_at / RFU VCAN (11757783_s_at) / Fold change /veh VCAN (11757783_s_at) / RFU DDX43 (11728927_at) / Fold change /veh DDX43 (11728927_at) / RFU KRT8 (11758188_x_at) / Fold change /veh KRT8 (11758188_x_at) / RFU NKD1 (11759106_at) / Fold change /veh NKD1 (11759106_at) / RFU SRD5A1 (11742802_a_at) / Fold change /veh SRD5A1 (11742802_a_at) / RFU TPSAB1 /// TPSB2 (11721975_s_at) / Fold change /veh TPSAB1 /// TPSB2 (11721975_s_at) / RFU GSTM3 (11746129_a_at) / Fold change /veh GSTM3 (11746129_a_at) / RFU IL23R (11737362_x_at) / Fold change /veh IL23R (11737362_x_at) / RFU TMEM51 (11727254_a_at) / Fold change /veh TMEM51 (11727254_a_at) / RFU PIWIL2 (11732686_x_at) / Fold change /veh PIWIL2 (11732686_x_at) / RFU ORM1 (11744905_x_at) / Fold change /veh ORM1 (11744905_x_at) / RFU CCDC152 (11743942_at) / Fold change /veh CCDC152 (11743942_at) / RFU ECM1 (11717891_a_at) / Fold change /veh ECM1 (11717891_a_at) / RFU IL23R (11748794_a_at) / Fold change /veh IL23R (11748794_a_at) / RFU TNFAIP8L3 (11732012_x_at) / Fold change /veh TNFAIP8L3 (11732012_x_at) / RFU MBOAT4 (11741988_at) / Fold change /veh MBOAT4 (11741988_at) / RFU 11764193_at / Fold change /veh 11764193_at / RFU TMEM53 (11763286_at) / Fold change /veh TMEM53 (11763286_at) / RFU MAGEB2 (11727129_at) / Fold change /veh MAGEB2 (11727129_at) / RFU TMEM200A (11744735_a_at) / Fold change /veh TMEM200A (11744735_a_at) / RFU CCDC152 (11751479_a_at) / Fold change /veh CCDC152 (11751479_a_at) / RFU FAM211A (11726209_a_at) / Fold change /veh FAM211A (11726209_a_at) / RFU RGS16 (11746705_a_at) / Fold change /veh RGS16 (11746705_a_at) / RFU VCAN (11755009_s_at) / Fold change /veh VCAN (11755009_s_at) / RFU RHOB (11743442_s_at) / Fold change /veh RHOB (11743442_s_at) / RFU RGS16 (11720943_a_at) / Fold change /veh RGS16 (11720943_a_at) / RFU RGS16 (11720944_at) / Fold change /veh RGS16 (11720944_at) / RFU, VPS4B / Fold change vs veh, VPS4B / RFU, CREB1 / Fold change vs veh, CREB1 / RFU, DNAJC13 / Fold change vs veh, DNAJC13 / RFU, GNAQ / Fold change vs veh, GNAQ / RFU, CDK5R1 / Fold change vs veh, CDK5R1 / RFU, ZRANB3 / Fold change vs veh, ZRANB3 / RFU, CUL4A / Fold change vs veh, CUL4A / RFU, CCNY / Fold change vs veh, CCNY / RFU, UFL1 / Fold change vs veh, UFL1 / RFU, COG3 / Fold change vs veh, COG3 / RFU, DIAPH2 / Fold change vs veh, DIAPH2 / RFU, SKA2 / Fold change vs veh, SKA2 / RFU, AFF3 / Fold change vs veh, AFF3 / RFU, LMF1 / Fold change vs veh, LMF1 / RFU, IPO11 / Fold change vs veh, IPO11 / RFU, DFFB / Fold change vs veh, DFFB / RFU, FOXP1 / Fold change vs veh, FOXP1 / RFU, CARD8 / Fold change vs veh, CARD8 / RFU, STRN3 / Fold change vs veh, STRN3 / RFU, ADK / Fold change vs veh, ADK / RFU, RASSF2 / Fold change vs veh, RASSF2 / RFU, WIPF1 / Fold change vs veh, WIPF1 / RFU, LARP1B / Fold change vs veh, LARP1B / RFU, RASA1 / Fold change vs veh, RASA1 / RFU, RB1 / Fold change vs veh, RB1 / RFU, PPFIA1 / Fold change vs veh, PPFIA1 / RFU, MAT2A / Fold change vs veh, MAT2A / RFU, CCT5 / Fold change vs veh, CCT5 / RFU, WDR92 / Fold change vs veh, WDR92 / RFU, CUX1 / Fold change vs veh, CUX1 / RFU, TTC7A / Fold change vs veh, TTC7A / RFU, TMEM135 / Fold change vs veh, TMEM135 / RFU, DEPTOR / Fold change vs veh, DEPTOR / RFU, CPM / Fold change vs veh, CPM / RFU, DNAJB6 / Fold change vs veh, DNAJB6 / RFU, CACNA2D3 / Fold change vs veh, CACNA2D3 / RFU, DTX4 / Fold change vs veh, DTX4 / RFU, TFCP2 / Fold change vs veh, TFCP2 / RFU, GMCL1 /// GMCL1P1 / Fold change vs veh, GMCL1 /// GMCL1P1 / RFU, AEBP2 / Fold change vs veh, AEBP2 / RFU, SNHG1 /// SNORD22 /// SNORD25 /// SNORD26 /// SNORD27 /// SNORD28 /// SNORD29 /// SNORD31 / Fold change vs veh, SNHG1 /// SNORD22 /// SNORD25 /// SNORD26 /// SNORD27 /// SNORD28 /// SNORD29 /// SNORD31 / Fold change (Aza/veh), C12orf56 (ProbeSet 11735607_a_at) / Fold change (ACY-1035/veh), C12orf56 (ProbeSet 11735607_a_at) / Fold change (Aza/veh), FGFR1OP (ProbeSet 11751329_s_at) / Fold change (ACY-1035/veh), FGFR1OP (ProbeSet 11751329_s_at) / Fold change (Aza/veh), VPS36 (ProbeSet 11739960_a_at) / Fold change (ACY-1035/veh), VPS36 (ProbeSet 11739960_a_at) / RFU SYPL1 (11715823_x_at) / Fold change /veh SYPL1 (11715823_x_at) / RFU IGFBP7 (11715501_s_at) / Fold change /veh IGFBP7 (11715501_s_at) / RFU REEP3 (11722064_at) / Fold change /veh REEP3 (11722064_at) / RFU IGLL1 (11728026_x_at) / Fold change /veh IGLL1 (11728026_x_at): dose or concentration left out as unconfirmed
Details: ProbeSet 11748670_a_at; LIST B

`Nc1ccc(-c2cccs2)cc1NC(=O)c1ccc2c(c1)cc(C1CC1)n2CCN1CCOCC1` [ACY-1035] was tested, and the “Fold change vs veh, PIK3R1” value was 0.90.
